Measurements reported in paper PMC3983353 (Journal of Medicinal Chemistry, 2014).
pEC50: −log10 of the molar value.

Columns and labels:
[1] = test system: metastatic melanoma A375 cell line; settings: read-out: EC50 in A375 cells; cited from earlier work
Sk-Mel28 cells = settings: read-out: EC50 in Sk-Mel28 cells; cited from earlier work
rat nNOS = rat nNOS (Rattus norvegicus, UniProt P29476)
immortalized melanocytes = settings: cannot calculate = toxic even at lower concentration and no dose–activity curve occurred

Chain of rat nNOS (P29476 whole entry): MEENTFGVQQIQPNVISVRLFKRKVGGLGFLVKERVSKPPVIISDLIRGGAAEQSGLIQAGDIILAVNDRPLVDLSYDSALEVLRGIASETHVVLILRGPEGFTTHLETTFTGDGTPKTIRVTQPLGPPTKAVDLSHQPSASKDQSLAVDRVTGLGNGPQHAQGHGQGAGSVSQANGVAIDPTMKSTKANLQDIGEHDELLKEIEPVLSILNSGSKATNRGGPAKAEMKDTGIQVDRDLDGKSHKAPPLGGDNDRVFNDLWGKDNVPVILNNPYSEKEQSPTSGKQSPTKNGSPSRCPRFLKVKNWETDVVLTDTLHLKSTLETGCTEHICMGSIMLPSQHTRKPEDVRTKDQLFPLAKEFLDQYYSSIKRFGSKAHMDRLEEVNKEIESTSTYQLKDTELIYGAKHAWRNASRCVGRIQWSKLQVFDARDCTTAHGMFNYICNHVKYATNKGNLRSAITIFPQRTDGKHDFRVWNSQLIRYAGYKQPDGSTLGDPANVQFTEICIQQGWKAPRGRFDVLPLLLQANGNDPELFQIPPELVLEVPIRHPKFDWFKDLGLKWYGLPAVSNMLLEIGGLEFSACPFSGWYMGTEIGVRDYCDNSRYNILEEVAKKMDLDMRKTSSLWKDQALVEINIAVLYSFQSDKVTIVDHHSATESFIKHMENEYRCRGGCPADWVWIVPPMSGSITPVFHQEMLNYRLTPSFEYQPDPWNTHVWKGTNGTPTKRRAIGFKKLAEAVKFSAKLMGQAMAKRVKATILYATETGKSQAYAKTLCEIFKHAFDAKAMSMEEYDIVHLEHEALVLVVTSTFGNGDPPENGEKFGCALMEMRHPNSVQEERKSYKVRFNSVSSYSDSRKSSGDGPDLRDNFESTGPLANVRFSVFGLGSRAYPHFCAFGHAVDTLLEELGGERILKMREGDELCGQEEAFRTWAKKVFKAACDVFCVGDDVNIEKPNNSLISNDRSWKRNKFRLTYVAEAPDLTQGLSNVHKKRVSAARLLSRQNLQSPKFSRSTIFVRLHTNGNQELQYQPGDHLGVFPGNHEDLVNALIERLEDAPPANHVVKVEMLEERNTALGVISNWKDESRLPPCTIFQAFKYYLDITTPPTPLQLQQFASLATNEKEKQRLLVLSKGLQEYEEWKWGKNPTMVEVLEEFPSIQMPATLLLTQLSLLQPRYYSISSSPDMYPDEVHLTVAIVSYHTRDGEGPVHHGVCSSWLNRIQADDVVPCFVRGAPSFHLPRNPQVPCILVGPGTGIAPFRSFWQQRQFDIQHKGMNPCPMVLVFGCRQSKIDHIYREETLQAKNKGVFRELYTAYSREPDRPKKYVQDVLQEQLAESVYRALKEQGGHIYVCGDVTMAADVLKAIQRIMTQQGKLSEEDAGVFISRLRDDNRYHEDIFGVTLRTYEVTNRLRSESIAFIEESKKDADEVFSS

N.N.[Cl][Pt][Cl] [cisplatin]
pEC50 [1]: 5.38 | pEC50 (Sk-Mel28 cells): 4.84

N=C(Nc1cccc(OCCCOc2cccc(NC(=N)c3cccs3)c2)c1)c1cccs1 [compound 12, N,N′-((Propane-1,3-diylbis(oxy))bis(3,1-phenylene))bis(thiophene-2-carboximidamide)]
lower nNOS potency than 11 (rat nNOS): 2 fold

N=C(Nc1cccc(CCNCc2cccc(NC(=N)c3cccs3)c2)c1)c1cccs1 [compound 13, N-(3-(2-((3-(Thiophene-2-carboximidamido)benzyl)amino)ethyl)phenyl)thiophene-2-carboximidamide]
EC50 immortalized melanocytes (immortalized melanocytes): cannot calculate ^b

CCN(CCc1cccc(F)c1)Cc1cccc(NC(=N)c2cccs2)c1 [compound 17, N-(3-((Ethyl(3-fluorophenethyl)amino)methyl)phenyl)thiophene-2-carboximidamide]
lower nNOS potency than 16 (rat nNOS): ~7 fold
